# From patent publication US20250213478A1, “CATIONIC LIPID HAVING DISULFIDE BOND, LIPID MEMBRANE STRUCTURE INCLUDING SAME, NUCLEIC ACID INTRODUCTION AGENT AND PHARMACEUTICAL COMPOSITION CONTAINING ANY ONE OF SAME, METHOD FOR INTRODUCING NUCLEIC ACID INTO CELL OR TARGET CELL, AND METHOD FOR PRODUCING CELLULAR PHARMACEUTICAL” (NOF Corporation, priority 2022, published 2025)
# How the values were obtained:
# [1] = Measurement of Liposomal pKa of LNP (TNS fluorescence); assay type: physicochemical; conditions: LNP without nucleic acid, cationic lipid:DOPC:Chol=52.5:7.5:40 + about 1.5 mol DMG-PEG2k; pH at which relative TNS fluorescence intensity was 50%
# Method: Lipid nanoparticles (LNP) without containing nucleic acid were used for the evaluation of Liposomal pKa.
# (§1) A 10 mM ethanol solution of cationic lipid, a 5 mM ethanol solution of DOPC, and a 10 mM ethanol solution of Chol were mixed at desired ratio (cationic lipid:DOPC:Chol=52.5:7.5:40 (molar ratio)) in an Eppendorf tube to achieve the total lipid amount of 720 nmol. To the obtained mixture was further added DMG-PEG2k (2 mM ethanol solution) in an amount of about 1.5 mol with respect to the total amount 100 mol of cationic lipid, DOPC, and Chol, and then ethanol was added to prepare an ethanol solution of the lipid (total amount: 360 μL).
# (§2) An acidic malic acid buffer (20 mM, pH 3.0) (1080 μL) containing NaCl at a final concentration of 30 mM and an ethanol solution (360 μL) of lipid were each weighed in a syringe. Using an ultra high-speed nanomedicament producing apparatus NanoAssmblr (manufactured by Precision NanoSystems), LNP was prepared under the conditions of addition rate of acidic buffer solution: 3 mL/min, addition rate of ethanol solution of lipid: 1 mL/min, and syringe holder temperature: 25° C., and collected in a 15 mL tube. MES buffer (pH 6.5) (3000 μL) was added to the 15 mL tube, the obtained mixture was transferred to Amicon Ultra 4, and ultrafiltration was performed under centrifugation conditions (25° C., 1000 g, 6 min) to concentrate the mixture to about 100 μL. The obtained concentrate was diluted with PBS to 4 mL, and the mixture was concentrated again under centrifugation conditions (25° C., 1000 g, 6 min), and this operation was performed twice. The obtained concentrate was diluted with PBS to a lipid concentration of 0.5 mM to give a dispersion containing LNP.
# 20 mM Citrate buffer, sodium phosphate buffer, and tris HCl buffer, each containing NaCl at a final concentration of 150 mM and adjusted to various pHs within the range of pH 3.0 to 10.0, were prepared. TNS (manufactured by Sigma) was diluted with ultrapure water to 0.6 mM. TNS solution (2 μL), dispersions (12 μL) containing LNP prepared in [Experimental Example 1], 1., and buffers adjusted to various pHs (186 μL) were added to a black 96 well plate. The plate was protected from light and shaken at 400 rpm for 10 min. The fluorescence intensity (excitation: 321 nm/emission: 447 nm) was measured using a plate reader (manufactured by TECAN). The relative fluorescence intensity was calculated as a percentage, with the maximum value of the fluorescence intensity in each LNP being 100% and the minimum value being 0%. Furthermore, the pH at which the relative fluorescence intensity was 50% was taken as Liposomal pKa. In Comparative Example, the cationic lipid described in the aforementioned Table 3 were used.
# [2] = Particle size, PdI and zeta potential of mRNA-encapsulating LNPs (dynamic light scattering); assay type: physicochemical; conditions: mRNA-encapsulating LNP, cationic lipid:DOPC:Chol=55:5:40 + about 1 mol DMG-PEG2k; for PdI / particle size: dynamic light scattering; for zeta potential: physiological pH
# Method: as §1, with “lipid:DOPC:Chol=55:5:40” for “lipid:DOPC:Chol=52.5:7.5:40”, “1” for “1.5”
# An acidic buffer solution (total amount: 1080 μL) of nucleic acid was prepared by weighing 7.2 μg of mRNA solution (0.6 mg/mL) in a 5 mL tube and adding acidic malate buffer (20 mM, pH 3.0) containing NaCl at a final concentration of 30 mM.
# as §2, with “buffer solution of nucleic” for “malic”, “acid” for “acid buffer (20 mM, pH 3.0) (1080 μL) containing NaCl at a final concentration of 30 mM”, “solution” for “solution (360 μL)”, “solution of nucleic acid:” for “solution:”, “2” for “0.5”
# The particle size, PdI (Polydispersity Index), and zeta potential of the mRNA-encapsulating LNP prepared by the method of the above-mentioned 1 were measured by a dynamic light scattering method. In Comparative Example, the cationic lipid described in the aforementioned Table 3 were used.
# HeLa cells = test: Evaluation of in vitro gene expression in HeLa cell (luciferase mRNA-encapsulating LNP); assay type: cell-based, human; conditions: for cumulative luciferase luminescence intensity over 24 hr: luciferase mRNA 0.4 μg per dish, LNP cationic lipid:DOPC:Chol:DMG-PEG2k=55:5:40:1; for gene expression activity compared to Comparative Example: result in words
# Method: (§3) LNP encapsulating mRNA that expresses luciferase (cationic lipid:DOPC:Chol:DMG-PEG2k=55:5:40:1 (molar ratio)) was prepared by the method described in [Experimental Example 2], 1.
# HeLa cells, which are human cervical cancer cells, were seeded in a 3.5 cm dish at 5.0×10^4 cells/2 mL/Dish 24 hours before transfection. After 24 hours, the medium was exchanged with a culture medium (D-MEM) containing 0.1 mM D-luciferin. Prepared mRNA-encapsulating LNP was diluted with PBS such that the concentration of mRNA was about 8 μg/mL. The diluted mRNA-encapsulating LNP solution (about 50 μL, mRNA: 0.4 μg) was added to the 3.5 cm dish and set in an incubator luminometer KronosDio. The luminescence intensity of luciferase was measured for 2 min every one hour. The cumulative luciferase luminescence intensity for 24 hr was calculated from the obtained time change of expression. For example, “1.0E+06” means “1.0×10^6”. In Comparative Example, the cationic lipid described in the aforementioned Table 3 were used.
# BALB/c mouse = test: Evaluation of in vivo gene expression (luciferase mRNA-encapsulating LNP, IVIS of isolated organs); conditions: for relative value based on Comparative Example (amount of luminescence in spleen): relative to O-Ph-P4C2 LNP = 1.00; for amount of luminescence in each organ: heart / amount of luminescence in each organ: kidney / amount of luminescence in each organ: liver / amount of luminescence in each organ: lung / amount of luminescence in each organ: spleen: tail vein, mRNA 0.05 mg/kg, 4.5 hr + 15 min after administration; for amount of luminescence in each organ: spleen: spleen (Table 7)
# Method: as §3
# The prepared each mRNA-encapsulating LNP dispersion was administered from the tail vein of BALB/c mouse (male, 5-week-old). The dose of mRNA was set to 0.05 mg per 1 kg body weight of the mouse, and the dose of the mRNA-encapsulating LNP dispersion was set to 10 μL per 1 g body weight of the mouse. After 4.5 hr from the administration of the mRNA-encapsulating LNP dispersion, a PBS solution of D-luciferin potassium was administered into the abdominal cavity of the mouse. The dose of D-luciferin potassium was set to 3 mg per mouse, and the dose of the PBS solution of D-luciferin potassium was set to 200 μL per mouse. After 15 min from the administration of the PBS solution of D-luciferin potassium, the mouse was euthanized, and the liver, spleen, kidney, heart, and lung were isolated. The luminescence in each organ was quantified using an in vivo imaging system (IVIS) with an exposure of 10 sec. The amount of luminescence in each organ was quantified by image analysis using Live Imaging software attached to IVIS. The amount of luminescence (photons/sec) was calculated from the acquired image and used as an index of gene expression activity. “E+0a” (a: integer) indicated in Table 7 and Table 8 means “10^a”. For example, “1.0E+02” means “1.0×10^2”. In Comparative Example, the cationic lipid described in the aforementioned Table 3 were used.
SMILES,pKa [1],PdI [2],particle size [2] [nm],zeta potential [2] [mV],cumulative luciferase luminescence intensity over 24 hr (HeLa cells) [RLU],gene expression activity compared to Comparative Example (HeLa cells),relative value based on Comparative Example (amount of luminescence in spleen) (BALB/c mouse),amount of luminescence in each organ: heart (BALB/c mouse) [photons/sec],amount of luminescence in each organ: kidney (BALB/c mouse) [photons/sec],amount of luminescence in each organ: liver (BALB/c mouse) [photons/sec],amount of luminescence in each organ: lung (BALB/c mouse) [photons/sec],amount of luminescence in each organ: spleen (BALB/c mouse) [photons/sec]
CCCCCCCCCCCCCCC(CCCCCCCCCCCCCC)C(=O)Oc1ccc(CC(=O)OCCSSCCOC(=O)CCCN(C)C)cc1 [Example 7],7.8,0.077,92,6.8,2.13E+08,superior gene expression activity,0.37,6.86E+05,6.35E+05,1.23E+06,8.28E+05,4.03E+06
CCCCCCCCCCCCCCCCC(CCCCCCCCCCCCCCCC)C(=O)Oc1ccc(CC(=O)OCCSSCCOC(=O)C(C)CN(C)C)cc1 (stereo not shown) [Example 13],6.3,0.086,94,−10.2,1.44E+05,–,0.19,1.00E+06,8.00E+05,5.00E+07,8.67E+05,2.00E+06
CCCCCCCCCCCCCCCCC(CCCCCCCCCCCCCCCC)C(=O)Oc1ccc(CC(=O)OCCSSCCOC(=O)NCCN(CC)CC)cc1 [Example 22],7.5,0.090,96,4.7,2.38E+08,superior gene expression activity,0.29,3.91E+05,4.45E+05,8.31E+06,5.20E+05,3.16E+06

# Second part, led by results:
pKa [1],PdI [2],particle size [2] [nm],zeta potential [2] [mV],SMILES,cumulative luciferase luminescence intensity over 24 hr (HeLa cells) [RLU],gene expression activity compared to Comparative Example (HeLa cells),relative value based on Comparative Example (amount of luminescence in spleen) (BALB/c mouse),amount of luminescence in each organ: heart (BALB/c mouse) [photons/sec],amount of luminescence in each organ: kidney (BALB/c mouse) [photons/sec],amount of luminescence in each organ: liver (BALB/c mouse) [photons/sec],amount of luminescence in each organ: lung (BALB/c mouse) [photons/sec],amount of luminescence in each organ: spleen (BALB/c mouse) [photons/sec]
7.9,0.118,116,6.4,CCCCCCCCCCCCCCCCC(CCCCCCCCCCCCCCCC)C(=O)Oc1ccc(CC(=O)OCCSSCCOC(=O)NCCN(C)C)cc1 [Example 21],1.22E+08,superior gene expression activity,0.05,3.41E+05,5.83E+05,3.68E+05,6.51E+05,5.86E+05
8.3,0.160,94,13.8,CCCCCCCCCCCCCCCCC(CCCCCCCCCCCCCCCC)C(=O)Oc1ccc(CC(=O)OCCSSCCOC(=O)NCCCN(C)C)cc1 [Example 23],2.05E+07,superior gene expression activity,0.04,–,1.53E+05,2.36E+05,5.02E+05,4.45E+05
